Common to all, as to assay: relative viability (nuclei count vs DMSO), 5 days (fraction); higher = more cells survive
Compound in the assay “Tivantinib + Linsitinib”: O=C1NC(=O)[C@@H](c2cn3c4c(cccc24)CCC3)[C@@H]1c1c[nH]c2ccccc12 [Tivantinib] + C[C@]1(O)C[C@@H](c2nc(-c3ccc4ccc(-c5ccccc5)nc4c3)c3c(N)nccn32)C1 [Linsitinib] (partner 1 µM)
An outline of the steps:
(§1)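 Cells from lung cancer lines were seeded into 1536-well plates and, one day later, dosed by pin tool. Treatments were either a single drug or a fixed dose of an anchor drug with five library-drug doses (not always all listed) in √10 steps. After 5 days, nuclei were stained in a one-step fixation (final 0.05% Triton X-100, 1% formaldehyde, 1 ug/ml Hoechst) and counted on 4× images, and relative viability is the treated-to-vehicle nuclei ratio, as the median of duplicate plates.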

Compound in the assay “Tivantinib + Trametinib”: O=C1NC(=O)[C@@H](c2cn3c4c(cccc24)CCC3)[C@@H]1c1c[nH]c2ccccc12 [Tivantinib] + CC(=O)Nc1cccc(-n2c(=O)n(C3CC3)c(=O)c3c(Nc4ccc(I)cc4F)n(C)c(=O)c(C)c32)c1 [Trametinib] (partner 0.02 µM)
In a few lines:
as §1

Compound in the assay “Tivantinib + Decitabine”: O=C1NC(=O)[C@@H](c2cn3c4c(cccc24)CCC3)[C@@H]1c1c[nH]c2ccccc12 [Tivantinib] + Nc1ncn([C@H]2C[C@H](O)[C@@H](CO)O2)c(=O)n1 [Decitabine] (partner 2 µM)
An outline of the steps: as §1

Compound in the assay “Crenolanib + Luminespib”: CC1(COc2ccc3c(c2)ncn3-c2ccc3cccc(N4CCC(N)CC4)c3n2)COC1 [Crenolanib] + CCNC(=O)c1noc(-c2cc(C(C)C)c(O)cc2O)c1-c1ccc(CN2CCOCC2)cc1 [Luminespib] (partner 0.01 µM)
An outline of the steps:
as §1

With NCI-H2347, the relative viability in the assay with Tivantinib + Linsitinib (first compound 0.01 µM) is 0.996; in the assay with Tivantinib + Linsitinib (first compound 0.03162 µM), 0.843; in the assay with Tivantinib + Linsitinib (first compound 0.1 µM), 1.02; with Tivantinib + Linsitinib (first compound 0.3162 µM), 1.01; with Tivantinib + Trametinib (first compound 0.01 µM) it was 0.246; with Tivantinib + Trametinib (first compound 0.03162 µM), 0.316. Further, the relative viability in the assay with Tivantinib + Trametinib (first compound 0.1 µM) worked out at 0.231; in the assay with Tivantinib + Trametinib (first compound 0.3162 µM) it was 0.248; with Tivantinib + Decitabine (first compound 0.01 µM), 0.699; with Tivantinib + Decitabine (first compound 0.03162 µM), 0.592; in the assay with Tivantinib + Decitabine (first compound 0.1 µM), 0.623; in the assay with Tivantinib + Decitabine (first compound 0.3162 µM) it was 0.629. For the same cell line, the relative viability with Crenolanib + Luminespib (first compound 0.01 µM) came out at 0.44; in the assay with Crenolanib + Luminespib (first compound 0.3162 µM), 0.556; with Crenolanib + Luminespib (first compound 1 µM) it was 0.353.
As for NCI-H2405, the relative viability was 1.16 with Tivantinib + Linsitinib (first compound 0.01 µM); 1.02 with Tivantinib + Linsitinib (first compound 0.03162 µM); 0.941 with Tivantinib + Linsitinib (first compound 0.1 µM); 0.739 with Tivantinib + Linsitinib (first compound 0.3162 µM); 0.771 with Tivantinib + Trametinib (first compound 0.01 µM); 0.63 in the assay with Tivantinib + Trametinib (first compound 0.03162 µM). Moreover, the relative viability worked out at 0.615 in the assay with Tivantinib + Trametinib (first compound 0.1 µM); 0.597 in the assay with Tivantinib + Trametinib (first compound 0.3162 µM); 0.754 with Tivantinib + Decitabine (first compound 0.01 µM); 0.789 with Tivantinib + Decitabine (first compound 0.03162 µM); 0.73 with Tivantinib + Decitabine (first compound 0.1 µM); 0.79 in the assay with Tivantinib + Decitabine (first compound 0.3162 µM). Also, the relative viability in the assay with Crenolanib + Luminespib (first compound 0.01 µM) came to 0.786; in the assay with Crenolanib + Luminespib (first compound 0.03162 µM), 0.83; with Crenolanib + Luminespib (first compound 0.3162 µM) it was 0.641; with Crenolanib + Luminespib (first compound 1 µM), 0.594.
Turning to NCI-H3122, the relative viability worked out at 0.939 with Tivantinib + Linsitinib (first compound 0.01 µM); 0.946 with Tivantinib + Linsitinib (first compound 0.03162 µM); 0.973 with Tivantinib + Linsitinib (first compound 0.1 µM); 0.968 in the assay with Tivantinib + Linsitinib (first compound 0.3162 µM); 0.219 with Tivantinib + Trametinib (first compound 0.01 µM); 0.216 with Tivantinib + Trametinib (first compound 0.03162 µM). Also, the relative viability with Tivantinib + Trametinib (first compound 0.1 µM) was determined as 0.199; with Tivantinib + Trametinib (first compound 0.3162 µM) it was 0.202; with Tivantinib + Decitabine (first compound 0.01 µM) it was 0.434; with Tivantinib + Decitabine (first compound 0.03162 µM) it was 0.484; with Tivantinib + Decitabine (first compound 0.1 µM) it was 0.398; with Tivantinib + Decitabine (first compound 0.3162 µM), 0.434. Also, the relative viability in the assay with Crenolanib + Luminespib (first compound 0.01 µM) was 0.0862; in the assay with Crenolanib + Luminespib (first compound 0.03162 µM), 0.0824; with Crenolanib + Luminespib (first compound 0.1 µM), 0.0708; in the assay with Crenolanib + Luminespib (first compound 0.3162 µM), 0.0964; with Crenolanib + Luminespib (first compound 1 µM), 0.0864.
Take PC-3 [JPC-3]: the relative viability was 0.929 in the assay with Tivantinib + Linsitinib (first compound 0.01 µM); 1.04 with Tivantinib + Linsitinib (first compound 0.03162 µM); 1.01 with Tivantinib + Linsitinib (first compound 0.1 µM); 0.708 with Tivantinib + Linsitinib (first compound 0.3162 µM); 0.731 with Tivantinib + Trametinib (first compound 0.01 µM); 0.726 with Tivantinib + Trametinib (first compound 0.03162 µM). The relative viability was determined as 0.693 with Tivantinib + Trametinib (first compound 0.1 µM); 0.513 in the assay with Tivantinib + Trametinib (first compound 0.3162 µM); 0.766 with Tivantinib + Decitabine (first compound 0.01 µM); 0.798 with Tivantinib + Decitabine (first compound 0.03162 µM); 0.839 with Tivantinib + Decitabine (first compound 0.1 µM); 0.6 in the assay with Tivantinib + Decitabine (first compound 0.3162 µM). Moreover, the relative viability with Crenolanib + Luminespib (first compound 0.01 µM) stood at 0.806; with Crenolanib + Luminespib (first compound 0.03162 µM), 0.761; with Crenolanib + Luminespib (first compound 0.1 µM), 0.676; with Crenolanib + Luminespib (first compound 0.3162 µM) it was 0.742; in the assay with Crenolanib + Luminespib (first compound 1 µM), 0.71.
For the cell line PC-14, the relative viability in the assay with Tivantinib + Linsitinib (first compound 0.01 µM) came out at 0.941; in the assay with Tivantinib + Linsitinib (first compound 0.03162 µM) it was 0.923; in the assay with Tivantinib + Linsitinib (first compound 0.1 µM), 0.931; in the assay with Tivantinib + Linsitinib (first compound 0.3162 µM), 0.892; with Tivantinib + Trametinib (first compound 0.01 µM) it was 0.671; in the assay with Tivantinib + Trametinib (first compound 0.03162 µM), 0.811. Also, the relative viability was determined as 0.753 with Tivantinib + Trametinib (first compound 0.1 µM); 0.452 in the assay with Tivantinib + Trametinib (first compound 0.3162 µM); 0.238 in the assay with Tivantinib + Decitabine (first compound 0.01 µM); 0.234 with Tivantinib + Decitabine (first compound 0.03162 µM); 0.223 in the assay with Tivantinib + Decitabine (first compound 0.1 µM); 0.142 in the assay with Tivantinib + Decitabine (first compound 0.3162 µM). Also, the relative viability in the assay with Crenolanib + Luminespib (first compound 0.01 µM) was 0.126; with Crenolanib + Luminespib (first compound 0.1 µM), 0.154; with Crenolanib + Luminespib (first compound 0.3162 µM), 0.118; with Crenolanib + Luminespib (first compound 1 µM) it was 0.146.
On to RERF-LC-KJ, for which the relative viability turned out to be 0.895 with Tivantinib + Linsitinib (first compound 0.01 µM); 0.945 with Tivantinib + Linsitinib (first compound 0.03162 µM); 0.826 in the assay with Tivantinib + Linsitinib (first compound 0.1 µM); 0.808 with Tivantinib + Linsitinib (first compound 0.3162 µM); 0.875 with Tivantinib + Trametinib (first compound 0.01 µM); 0.845 with Tivantinib + Trametinib (first compound 0.03162 µM). For the same cell line, the relative viability turned out to be 0.855 with Tivantinib + Trametinib (first compound 0.1 µM); 0.688 with Tivantinib + Trametinib (first compound 0.3162 µM); 0.802 with Tivantinib + Decitabine (first compound 0.01 µM); 0.632 with Tivantinib + Decitabine (first compound 0.03162 µM); 0.63 with Tivantinib + Decitabine (first compound 0.1 µM); 0.622 with Tivantinib + Decitabine (first compound 0.3162 µM). The relative viability in the assay with Crenolanib + Luminespib (first compound 0.01 µM) was determined as 1.31; in the assay with Crenolanib + Luminespib (first compound 0.03162 µM), 1.28; with Crenolanib + Luminespib (first compound 0.1 µM), 1.04; with Crenolanib + Luminespib (first compound 0.3162 µM), 1.31; with Crenolanib + Luminespib (first compound 1 µM), 1.18.
Consider SK-LU-1, for which the relative viability turned out to be 1.07 with Tivantinib + Linsitinib (first compound 0.01 µM); 1.17 with Tivantinib + Linsitinib (first compound 0.03162 µM); 0.982 with Tivantinib + Linsitinib (first compound 0.1 µM); 1.14 with Tivantinib + Linsitinib (first compound 0.3162 µM); 0.514 with Tivantinib + Trametinib (first compound 0.01 µM); 0.549 with Tivantinib + Trametinib (first compound 0.03162 µM). The relative viability with Tivantinib + Trametinib (first compound 0.1 µM) stood at 0.484; with Tivantinib + Trametinib (first compound 0.3162 µM), 0.472; with Tivantinib + Decitabine (first compound 0.01 µM), 0.711; in the assay with Tivantinib + Decitabine (first compound 0.03162 µM) it was 0.679; with Tivantinib + Decitabine (first compound 0.1 µM), 0.593; in the assay with Tivantinib + Decitabine (first compound 0.3162 µM), 0.555. The relative viability with Crenolanib + Luminespib (first compound 0.01 µM) is 0.205; with Crenolanib + Luminespib (first compound 0.03162 µM), 0.246; in the assay with Crenolanib + Luminespib (first compound 0.1 µM) it was 0.217; with Crenolanib + Luminespib (first compound 0.3162 µM), 0.208; with Crenolanib + Luminespib (first compound 1 µM) it was 0.211.
SK-MES-1: the relative viability with Tivantinib + Linsitinib (first compound 0.01 µM) came to 1.13; with Tivantinib + Linsitinib (first compound 0.03162 µM) it was 1.03; in the assay with Tivantinib + Linsitinib (first compound 0.1 µM) it was 0.98; with Tivantinib + Linsitinib (first compound 0.3162 µM), 0.82; with Tivantinib + Trametinib (first compound 0.01 µM) it was 0.645; in the assay with Tivantinib + Trametinib (first compound 0.03162 µM), 0.511. Also, the relative viability came to 0.521 with Tivantinib + Trametinib (first compound 0.1 µM); 0.582 with Tivantinib + Trametinib (first compound 0.3162 µM); 0.299 with Tivantinib + Decitabine (first compound 0.01 µM); 0.351 in the assay with Tivantinib + Decitabine (first compound 0.03162 µM); 0.337 with Tivantinib + Decitabine (first compound 0.3162 µM); 0.827 with Crenolanib + Luminespib (first compound 0.01 µM). Besides, the relative viability in the assay with Crenolanib + Luminespib (first compound 0.03162 µM) was found to be 0.728; with Crenolanib + Luminespib (first compound 0.1 µM), 0.699; with Crenolanib + Luminespib (first compound 0.3162 µM), 0.83; with Crenolanib + Luminespib (first compound 1 µM), 0.57.
With SW 1573, the relative viability with Tivantinib + Linsitinib (first compound 0.01 µM) was found to be 0.762; with Tivantinib + Linsitinib (first compound 0.03162 µM), 0.853; with Tivantinib + Linsitinib (first compound 0.1 µM), 0.77; with Tivantinib + Linsitinib (first compound 0.3162 µM) it was 0.789; in the assay with Tivantinib + Trametinib (first compound 0.01 µM) it was 0.682; with Tivantinib + Trametinib (first compound 0.03162 µM), 0.488. Moreover, the relative viability in the assay with Tivantinib + Trametinib (first compound 0.1 µM) was 0.561; with Tivantinib + Trametinib (first compound 0.3162 µM), 0.452; with Tivantinib + Decitabine (first compound 0.01 µM) it was 0.688; in the assay with Tivantinib + Decitabine (first compound 0.03162 µM), 0.462; with Tivantinib + Decitabine (first compound 0.1 µM), 0.446; with Tivantinib + Decitabine (first compound 0.3162 µM), 0.494. The relative viability was found to be 0.833 with Crenolanib + Luminespib (first compound 0.01 µM); 0.283 with Crenolanib + Luminespib (first compound 0.03162 µM); 0.152 in the assay with Crenolanib + Luminespib (first compound 0.1 µM); 0.54 with Crenolanib + Luminespib (first compound 0.3162 µM); 0.16 with Crenolanib + Luminespib (first compound 1 µM).

(Values after the supplement of paper PMC10307832.)
